Assay type in all cases: cell-based
The subject of one assay is Fusarium solani FS2. In words: 24 hr Fusarium solani MIC (RPMI medium, FS2). Particulars: banded into grades. How it is done: Between 1 and 5 mgs of compound were accurately weighed out into a sterile Eppendorf tube. The compound was dissolved in DMSO to give a solution containing 5 mg/mL. Tubes were stored at −20° C. until required.
On the day of testing thawed solutions were vortex mixed to ensure homogeneity. 30 μL of solution was removed and added to 570 μL of sterile water in a separate sterile Eppendorf The thoroughly mixed solution was used to prepare a series of doubling dilutions in water, in a deep well plate. […] replicate plates were prepared using a Minitrak by aspirating 20 μL from each well into eleven clear polystyrene 96 well plates.
Spores of Aspergillus spp. (Aspergillus fumigatus [two strains], Aspergillus terreus [two strains], Aspergillus niger and Aspergillus flavus) were harvested from cultures grown on Sabarauds agar for 5 days, and resuspended in PBS/Tween 80 to approx 1×10^7 cfu/mL. Other filamentous fungi (Absidia corymbifera, Fusarium solani, Rhizomucor, Scedosporium spp., Trichophyton spp.), were grown on Sabarauds agar for 2-10 days and spores/hyphae resuspended in PBS/Tween to give approx 1×10^7 cfu/mL. Candida species (Candida albicans, Candida glabrata, Candida krusei, Candida parapsilosis and Candida tropicalis) were grown on Sabarauds agar, cells were harvested from the agar using a sterile loop and resuspended in PBS/Tween 80 to approx 1×10^6 cfu/mL. Each organism suspension was diluted in RPMI medium, containing 2% glucose and 0.135 M MOPS buffer (pH 7.0) to 0.5−2×10^4 cfu/mL for Aspergillus spp. and other filamentous fungi and 0.5-2×10^3 cfu/mL for yeast. 80 μL of an organism suspension was added to each well of the plate containing drug dilutions.
This produced MIC plates with a drug range 50-0.05 mg/L and organism inocula of 1-2×10^4 cfu/mL for Aspergillus spp. and other filamentous fungi and 1-2×10^3 cfu/mL for yeasts. All plates were incubated for 24-48 hrs at 35° C. Growth was assessed by monitoring the optical density at 485 nm for each well. The MIC of a compound is the lowest drug concentration that inhibits growth of an organism by >80% compared with a drug free control. MICs are recorded as mg/L. Other growth media can be used for susceptibility testing, and the activity of the described compounds can also be assessed in a medium comprising 1% glucose, 1% ammonium chloride and 0.5% yeast extract (YAG medium). To perform MIC tests in this medium, dilutions of compounds are prepared in microtitre plates as described above. Fungal strains to be tested are grown and harvested in an identical manner to that described above, each organism suspension is then diluted in YAG medium to 0.5-2×10^4 cfu/mL for Aspergillus spp. and other filamentous fungi and 0.5-2×10^3 cfu/mL for yeast. 80 μL of an organism suspension was added to each well of the plate containing drug dilutions. This produced MIC plates with a drug range 50-0.05 mg/L and organism inocula of 1-2×10^4 cfu/mL for Aspergillus spp. and other filamentous fungi and 1-2×10^3 cfu/mL for yeasts. All plates were incubated for 24 hrs at 35° C. Growth was assessed by monitoring the optical density at 485 nm for each well. The MIC of a compound is the lowest drug concentration that inhibits growth of an organism by >70% compared with a drug free control. MICs are recorded as mg/L. In cases where the MIC of an organism is […] mg/L the MIC is repeated using a concentration range of 0.5-0.0005 mg/L. MIC tests in YAG medium have more clear-cut endpoints and have slightly lower MICs than those performed in RPMI medium.
24 hr Fusarium solani MIC Results (RPMI Medium, FS2): […]

In the next assay the test system is Aspergillus flavus. The assay is described as follows: MIC (YAG medium). Particulars: YAG medium, MIC banded into grades; for MIC: Aspergillus flavus, read-out: MIC A. flavus (grade). A digest of the protocol:
(§1)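 Growth inhibition was determined by optical density at 485 nm after a 24-hour incubation at 35° C in glucose/ammonium chloride/yeast extract (YAG) medium. MICs, expressed in mg/L, were taken as the lowest drug level reducing growth by more than 70% relative to untreated wells.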

For the next assay, the system named is Aspergillus terreus AT49. The assay is described as follows: MIC (YAG medium). Particulars: YAG medium, MIC banded into grades, AT49; for MIC: Aspergillus terreus, read-out: MIC A. terreus 49 (grade). A digest of the protocol: as §1
Assay [1] relates to Aspergillus fumigatus AF210. The assay is described as follows: MIC (YAG medium). Particulars: YAG medium, MIC banded into grades, AF210; for MIC: Aspergillus fumigatus, read-out: MIC A. fumigatus 210 (grade). The essentials:
as §1

The test system of a further assay is Aspergillus terreus AT4. The assay is described as follows: MIC (YAG medium). Particulars: YAG medium, MIC banded into grades, AT4; for MIC: Aspergillus terreus, read-out: MIC A. terreus (grade). The essentials:
as §1

In assay [2] the test system is Aspergillus fumigatus AF293. In words: MIC (YAG medium). Particulars: YAG medium, MIC banded into grades, AF293; for MIC: Aspergillus fumigatus, read-out: MIC A. fumigatus (grade). A digest of the protocol:
as §1

Another assay concerns Aspergillus niger. The assay is described as follows: MIC (YAG medium). The settings on record: YAG medium, MIC banded into grades; for MIC: Aspergillus niger, read-out: MIC A. niger (grade). A digest of the protocol: as §1

Values after ≈ are worked out from the molar mass of the structure shown. Read-outs that look alike come from different tables or passages of the source.

Regarding `CON=C1CCN(c2ccc(NC(=O)C(=O)c3c(-c4ccccc4)cc4ccccn34)cc2)CC1` [Example 2, N-[4-(4-methoxyimino-piperidin-1-yl)-phenyl]-2-oxo-2-(2-phenyl-indolizin-3-yl)-acetamide], the MIC (in the assay with Fusarium solani FS2 (read-out: MIC); in the assay with Aspergillus flavus; in the assay on Aspergillus terreus AT49; in assay [1]; in the assay with Aspergillus terreus AT4; in assay [2]) was under 1 µg/mL in each case. Further, the MIC in the assay on Aspergillus niger was under 1 µg/mL.

`C=C1CCN(c2ccc(NC(=O)C(=O)c3c(-c4ccccc4)cc4ccccn34)cc2)CC1` [Example 3, N-[4-(4-methylene-piperidin-1-yl)-phenyl]-2-oxo-2-(2-phenyl-indolizin-3yl) acetamide]: the MIC against Fusarium solani FS2 is 3 (A grade of 3 represents an MIC of less than 1 mg/L). Further, the “MIC A. flavus (grade)” value against Aspergillus flavus is on record as 3 (A grade of 3 represents an MIC of less than 1 mg/L). In the assay on Aspergillus terreus AT49, the “MIC A. terreus 49 (grade)” value was 3 (A grade of 3 represents an MIC of less than 1 mg/L). In assay [1], the “MIC A. fumigatus 210 (grade)” value is 3 (A grade of 3 represents an MIC of less than 1 mg/L). In the assay on Aspergillus terreus AT4, the “MIC A. terreus (grade)” value is 3 (A grade of 3 represents an MIC of less than 1 mg/L). In addition, the “MIC A. fumigatus (grade)” value in assay [2] is 3 (A grade of 3 represents an MIC of less than 1 mg/L). The “MIC A. niger (grade)” value in the assay with Aspergillus niger is listed as 3 (A grade of 3 represents an MIC of less than 1 mg/L).

With `CC(C)c1cc(NC(=O)C(=O)c2c(-c3ccccc3)cc3ccccn23)ccc1C(=O)OCCn1ccnc1C(C)C` [Example 13, 2-Isopropyl-4-[2-oxo-2-(2-phenyl-indolizin-3-yl)-acetylamino]-benzoic acid 2-(2-isopropyl-imidazol-1-yl)-ethyl ester], the MIC in the assay with Fusarium solani FS2 (read-out: MIC) was 1 to 10 µg/mL (≈ 1.78 to 17.8 µM); in the assay with Aspergillus flavus it was under 1 µg/mL; in the assay on Aspergillus terreus AT49 it was under 1 µg/mL; in assay [1], 1 to 10 µg/mL (≈ 1.78 to 17.8 µM); with Aspergillus terreus AT4, 1 to 10 µg/mL (≈ 1.78 to 17.8 µM); in assay [2], under 1 µg/mL. Besides, in the assay on Aspergillus niger, the MIC is over 10 µg/mL.

For the compound `O=C(Nc1ccc(N2CCC3(CC2)OCCO3)cc1)C(=O)c1c(-c2ccccc2)cc2ccccn12` [Example 23, N-[4-(1,4-dioxa-8-aza-spiro[4.5]dec-8-yl)-phenyl}-2-oxo-2-(2-phenyl-indolizine-3-yl)-acetamide], the MIC (in the assay with Fusarium solani FS2 (read-out: MIC); in the assay on Aspergillus flavus; in the assay with Aspergillus terreus AT49; in assay [1]; with Aspergillus terreus AT4; in assay [2]) was under 1 µg/mL throughout. Moreover, in the assay with Aspergillus niger, the MIC was under 1 µg/mL.

As for `CC1CN(C2CCN(c3ccc(NC(=O)C(=O)c4c(-c5ccccc5)cc5ccccn45)cc3)CC2)CC(C)O1` (centres unmarked) [Example 24, N-{4-[4-(2,6-Dimethyl-morpholin-4-yl)-piperidin-1-yl]-phenyl}-2-oxo-2-(2-phenyl-indolizin-3-yl)-acetamide], the MIC with Fusarium solani FS2 (read-out: MIC) was 1 to 10 µg/mL (≈ 1.86 to 18.6 µM); with Aspergillus flavus, under 1 µg/mL; in the assay with Aspergillus terreus AT49 it was under 1 µg/mL; in assay [1], under 1 µg/mL; with Aspergillus terreus AT4 it was under 1 µg/mL; in assay [2], under 1 µg/mL. The MIC in the assay with Aspergillus niger is under 1 µg/mL.

Consider `Cc1cc(C)nc(NCCNc2ccc(NC(=O)C(=O)c3c(-c4ccccc4)cc4ccccn34)cc2)c1` [Example 92, N-{4-[2-(4,6-dimethyl-pyridin-2-yl-amino)-ethylamino]-phenyl}-2-oxo-2-(2-phenyl-indolizin-3-yl)-acetamide], for which the MIC in the assay with Aspergillus flavus is under 1 µg/mL; in the assay on Aspergillus terreus AT49 it was under 1 µg/mL; in assay [1], under 1 µg/mL; in the assay on Aspergillus terreus AT4, under 1 µg/mL; in assay [2] it was under 1 µg/mL; in the assay with Aspergillus niger, 1 to 10 µg/mL (≈ 1.99 to 19.9 µM).

Consider “N-(4-{3-[(4,6-Dimethyl-pyridin-2-yl)-methyl-amino]-propyl}-phenyl)-2-oxo-2-(2-phenyl-indolizin-3-yl)-acetamide [Example 70]”, for which the “MIC A. flavus (grade)” value in the assay on Aspergillus flavus is given as 3 (A grade of 3 represents an MIC of less than 1 mg/L). The “MIC A. terreus 49 (grade)” value against Aspergillus terreus AT49 was 3 (A grade of 3 represents an MIC of less than 1 mg/L). The “MIC A. fumigatus 210 (grade)” value in assay [1] is listed as 3 (A grade of 3 represents an MIC of less than 1 mg/L). In addition, in the assay with Aspergillus terreus AT4, the “MIC A. terreus (grade)” value was 3 (A grade of 3 represents an MIC of less than 1 mg/L). Moreover, the “MIC A. fumigatus (grade)” value in assay [2] is 3 (A grade of 3 represents an MIC of less than 1 mg/L). The “MIC A. niger (grade)” value in the assay with Aspergillus niger is 3 (A grade of 3 represents an MIC of less than 1 mg/L).

Consider “N-[4-(3-Ethyl-1H-imidazol-2yl methyl)-phenyl]-2-oxo-2-(2-o-tolyl-indolizin-3yl)-acetamide [Example 30]”, for which the “MIC A. flavus (grade)” value against Aspergillus flavus is given as 1 (a grade of 1 represents an MIC of greater than 10 mg/L). Moreover, the “MIC A. terreus 49 (grade)” value against Aspergillus terreus AT49 is reported as 1 (a grade of 1 represents an MIC of greater than 10 mg/L). In assay [1], the “MIC A. fumigatus 210 (grade)” value was 1 (a grade of 1 represents an MIC of greater than 10 mg/L). Moreover, the “MIC A. terreus (grade)” value against Aspergillus terreus AT4 is 1 (a grade of 1 represents an MIC of greater than 10 mg/L). Also, the “MIC A. fumigatus (grade)” value in assay [2] was 1 (a grade of 1 represents an MIC of greater than 10 mg/L). Moreover, the “MIC A. niger (grade)” value against Aspergillus niger is reported as 1 (a grade of 1 represents an MIC of greater than 10 mg/L).

As for “N-{4-[4-(2,6-Dimethyl-pyrimidin-4-yl)-piperazin-1-yl]-phenyl}-2-(2-phenyl-indolizin-3-yl)-acetamide [Example 45]”, in the assay with Aspergillus flavus, the “MIC A. flavus (grade)” value is 3 (A grade of 3 represents an MIC of less than 1 mg/L). The “MIC A. terreus 49 (grade)” value in the assay on Aspergillus terreus AT49 was 3 (A grade of 3 represents an MIC of less than 1 mg/L). The “MIC A. fumigatus 210 (grade)” value in assay [1] was 3 (A grade of 3 represents an MIC of less than 1 mg/L). In addition, the “MIC A. terreus (grade)” value in the assay with Aspergillus terreus AT4 is given as 3 (A grade of 3 represents an MIC of less than 1 mg/L). For the same compound, the “MIC A. fumigatus (grade)” value in assay [2] is 3 (A grade of 3 represents an MIC of less than 1 mg/L). In addition, the “MIC A. niger (grade)” value in the assay with Aspergillus niger is 2 (A grade of 2 represents an MIC of from 1 to 10).

The values above are taken from patent publication US20110183969A1, “ANTIFUNGAL COMBINATION THERAPY” (priority 2008, published 2011).
